Assays:
[1] = system: human hepatic stellate cells (HHSC); test: HHSC proliferation inhibition, WST-1 cell proliferation assay; format: cell-based; conditions: AT-II 10^-6M + LPS 10^-5M; ARB 10^-6M, obeticholic acid 5×10^-6M; 24 hours; WST-1 absorbance
Method: The various combined effects of obeticholic acid and three types of ARBs (losartan, valsartan, and candesartan) were confirmed in an in vitro cell system experiment. Specifically, using human hepatic stellate cells (HHSC), which are implicated in the main mechanism of progression of hepatic fibrosis in NASH, the effects of administration of obeticholic acid in combination with the three ARBs of inhibiting HHSC proliferation capacity and the expression of fibrosis markers were evaluated according to the following method. Human hepatic stellate cells (HHSC) (also referred to as human hepatic star cells) Obeticholic acid (obtained from Intercept Pharmaceuticals, Inc. via Sumitomo Dainippon Pharma Co., Ltd.) was used as an FXR agonist, and commercial losartan (potassium salt of losartan; referred to in this working example simply as “losartan”) and valsartan and candesartan ([…] of candesartan; referred to in this working example simply as “candesartan”) were used as ARBs. […] The direct action of inhibiting HIISC proliferation capacity was evaluated by means of a cell proliferation assay using WST-1 reagent. […] AT-II (10^-6M) Positive control group L […]): LPS 10^-5M) Positive control group AL ([…]): (10^-6M)+LPS (10^-5M) Obeticholic acid administration (G3): AT-II (10^-6M)+LPS (10^-5M)+obeticholic acid (5×10^-6M) ARB administration (G4): AT-II (10^-6M)+LPS (10^-5M)+ARB (10^-6M) Obeticholic acid+ARB combined administration (G5): AT-II (10^-6M)+LPS (10^-5M)+obeticholic acid (5×10^-6M)+ARB (10^-6M) 3) After the cells of the above groups (G1, G2A, G2L, G2AL, G3, G4, G5) were cultured for 24 hours, respective WST-1 cell proliferation assays were conducted, and the inhibitory effect of the pharmaceutical agents on cell proliferation was evaluated. The inhibitory effect of valsartan and candesartan on HHSC proliferation was also evaluated according to steps 1)-3) above. […]

[2] = system: α1(I) procollagen; test: HHSC fibrosis marker gene expression, RT-PCR, α1(I) procollagen; format: cell-based, human; conditions: AT-II 10^-6M + LPS 10^-5M; ARB 10^-6M, obeticholic acid 5×10^-6M; 24 hours; monotherapy vs G2AL, combination vs monotherapy groups
Method: (§1) The various combined effects of obeticholic acid and three types of ARBs (losartan, valsartan, and candesartan) were confirmed in an in vitro cell system experiment. Specifically, using human hepatic stellate cells (HHSC), which are implicated in the main mechanism of progression of hepatic fibrosis in NASH, the effects of administration of obeticholic acid in combination with the three ARBs of inhibiting HHSC proliferation capacity and the expression of fibrosis markers were evaluated according to the following method. Human hepatic stellate cells (HHSC) (also referred to as human hepatic star cells) Obeticholic acid (obtained from Intercept Pharmaceuticals, Inc. via Sumitomo Dainippon Pharma Co., Ltd.) was used as an FXR agonist, and commercial losartan (potassium salt of losartan; referred to in this working example simply as “losartan”) and valsartan and candesartan ([…] of candesartan; referred to in this working example simply as “candesartan”) were used as ARBs. Angiotensin II (AT-II) and/or lipopolysaccharide (LPS) were used (both AT1-mediated AT-II signalling and TLR4-mediated LPS signaling are known to play major roles in HSC activation and the progression of hepatic fibrosis). With respect to the effect of inhibiting fibrosis marker gene expression, collagen production capacity and TGF-β production capacity were evaluated by the RT-PCR method. 1) HHSCs were inoculated onto a 6-well plate in the amount of 300,000 cells/2 ml and allowed to proliferate in 1% FBS DMEM medium for 24 hours. 2) After 24 hours, the cells were divided into the following 7 groups and transferred to culture medium after adding the following drugs and/or reagents. Losartan was used as an ARB. Negative control group (G1): No drugs added (control) […] AT-II (10^-6M) Positive control group L […]): LPS (10^-5M) Positive control group AL ([…]): (10^-6M)+LPS (10^-5M) Obeticholic acid administration (G3): AT-II (10^-6M)+LPS (10^-5M)+obeticholic acid (5×10^-6M) ARB administration (G4): AT-II (10^-6M)+LPS (10^-5M)+ARB (10^-6M) Obeticholic acid+ARB combined administration (G5): AT-II (10^-6M)+LPS (10^-5M)+obeticholic acid (5×10^-6M)+ARB (10^-6M) […] Evaluations were conducted in the five groups G1, G2AL, G3, G4, and G5.

[3] = system: TGF-β1; test: HHSC fibrosis marker gene expression, RT-PCR, TGF-β1; format: cell-based, human; conditions: AT-II 10^-6M + LPS 10^-5M; ARB 10^-6M, obeticholic acid 5×10^-6M; 24 hours; monotherapy vs G2AL, combination vs monotherapy groups
Method: as §1

CCCCC(=O)N(Cc1ccc(-c2ccccc2-c2nnn[nH]2)cc1)[C@H](C(=O)O)C(C)C [valsartan]
statistically significant inhibition: promotion of activated HHSC proliferation by AT-II and LPS, compared to positive control group AL (G2AL) [1] | α1(I)-procollagen mRNA expression induced by AT-II and LPS in HHSC [2] | TGF-β1 mRNA expression induced by AT-II and LPS in HHSC [3]

CCOc1nc2cccc(C(=O)O)c2n1Cc1ccc(-c2ccccc2-c2nn[nH]n2)cc1 [candesartan]
statistically significant inhibition: promotion of activated HHSC proliferation by AT-II and LPS, compared to positive control group AL (G2AL) [1] | α1(I)-procollagen mRNA expression induced by AT-II and LPS in HHSC [2] | TGF-β1 mRNA expression induced by AT-II and LPS in HHSC [3]

From US11419878B2, “Medicine obtained by combining FXR agonist and ARB” (Intercept Pharmaceuticals, Inc., priority 2016, dated 2022)
